The values that follow are results of earlier work, collected in patent US20250288631A1, “PHYTOTHERAPY FORMULATION FOR SEXUAL DYSFUNCTIONS” (priority 2022, published 2025).

For the data set the following is noted: EFSA (2015).

In the case of `C/C=C/C=C\CC/C=C/C(=O)NCC(C)C` [spilanthol], the EFSA classification entry is recorded as “class III”. Further, for the setting “class III, 60 kg person”, the Exposure limit is 90 µg/person/day.
